Results: patent US10196364B2, “Pyrimidine carboxamides as sodium channel blockers” (Purdue Pharma L.P., priority 2013, dated 2019)

molecular target: human Nav1.7 (Homo sapiens, UniProt Q15858); assay: FLIPR sodium dye assay (CoroNa Green AM Na+ dye, primary fluorescence assay) in recombinant Nav1.7/HEK293 cells; assay type: cell-based; details: Table 6; CoroNa Green AM Na+ dye primary fluorescence assay; read-out: Nav1.7 Activity (μM) FLIPR assay IC50
Sequence (Q15858 1-1977 isoform Q15858-3): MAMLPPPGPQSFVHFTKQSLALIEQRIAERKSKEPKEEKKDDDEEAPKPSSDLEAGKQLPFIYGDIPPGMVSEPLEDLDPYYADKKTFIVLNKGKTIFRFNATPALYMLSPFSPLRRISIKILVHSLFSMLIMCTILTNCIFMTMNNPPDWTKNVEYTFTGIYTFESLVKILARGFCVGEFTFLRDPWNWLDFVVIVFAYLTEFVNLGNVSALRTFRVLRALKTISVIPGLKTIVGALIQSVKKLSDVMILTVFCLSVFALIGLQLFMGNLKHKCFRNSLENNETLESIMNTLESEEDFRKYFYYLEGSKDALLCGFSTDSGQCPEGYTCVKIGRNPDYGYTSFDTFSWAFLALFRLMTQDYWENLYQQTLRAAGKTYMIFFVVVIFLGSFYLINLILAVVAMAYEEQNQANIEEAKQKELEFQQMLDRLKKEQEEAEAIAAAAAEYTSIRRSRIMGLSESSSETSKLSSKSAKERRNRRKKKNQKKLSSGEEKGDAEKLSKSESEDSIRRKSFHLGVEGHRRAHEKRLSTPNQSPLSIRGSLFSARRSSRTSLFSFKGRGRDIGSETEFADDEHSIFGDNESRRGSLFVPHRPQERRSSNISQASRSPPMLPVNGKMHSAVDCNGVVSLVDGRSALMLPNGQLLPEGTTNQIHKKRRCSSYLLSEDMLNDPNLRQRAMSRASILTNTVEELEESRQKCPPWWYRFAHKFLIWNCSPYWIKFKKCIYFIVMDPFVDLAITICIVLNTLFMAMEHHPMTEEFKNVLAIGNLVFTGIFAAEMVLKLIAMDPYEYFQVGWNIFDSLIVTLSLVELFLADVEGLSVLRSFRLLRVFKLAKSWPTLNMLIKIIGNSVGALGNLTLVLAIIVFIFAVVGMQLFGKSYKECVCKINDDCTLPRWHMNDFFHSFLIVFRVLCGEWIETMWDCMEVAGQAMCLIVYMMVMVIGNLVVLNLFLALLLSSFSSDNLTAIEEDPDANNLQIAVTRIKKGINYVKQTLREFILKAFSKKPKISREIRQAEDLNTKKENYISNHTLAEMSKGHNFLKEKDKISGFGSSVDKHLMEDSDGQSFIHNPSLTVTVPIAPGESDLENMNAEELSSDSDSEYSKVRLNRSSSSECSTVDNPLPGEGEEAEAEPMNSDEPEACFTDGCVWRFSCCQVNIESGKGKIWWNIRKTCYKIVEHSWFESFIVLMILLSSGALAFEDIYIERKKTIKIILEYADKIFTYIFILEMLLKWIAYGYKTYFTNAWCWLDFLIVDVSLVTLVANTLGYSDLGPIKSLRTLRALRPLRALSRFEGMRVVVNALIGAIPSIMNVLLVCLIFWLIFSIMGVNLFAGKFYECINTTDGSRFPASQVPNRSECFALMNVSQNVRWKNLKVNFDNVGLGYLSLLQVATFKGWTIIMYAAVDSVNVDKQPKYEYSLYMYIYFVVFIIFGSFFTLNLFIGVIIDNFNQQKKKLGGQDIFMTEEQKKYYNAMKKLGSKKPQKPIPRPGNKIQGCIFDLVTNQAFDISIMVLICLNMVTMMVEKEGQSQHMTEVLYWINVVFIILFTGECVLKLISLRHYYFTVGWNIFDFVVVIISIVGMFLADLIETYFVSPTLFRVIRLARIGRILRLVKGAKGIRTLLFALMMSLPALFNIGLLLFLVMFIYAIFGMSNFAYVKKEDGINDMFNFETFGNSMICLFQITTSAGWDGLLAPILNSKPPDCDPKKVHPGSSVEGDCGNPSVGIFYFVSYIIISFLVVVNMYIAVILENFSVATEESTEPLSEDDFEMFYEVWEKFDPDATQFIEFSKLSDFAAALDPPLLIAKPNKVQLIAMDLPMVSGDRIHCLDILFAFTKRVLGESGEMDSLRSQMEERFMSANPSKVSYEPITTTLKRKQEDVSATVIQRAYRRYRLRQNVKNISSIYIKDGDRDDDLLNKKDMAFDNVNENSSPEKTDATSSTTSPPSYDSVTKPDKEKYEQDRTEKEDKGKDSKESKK

Question: How did the IC50 turn out when `C[C@H](Nc1cc(C(N)=O)nc(-c2ccc(Oc3ccc(F)cc3)c(C(N)=O)c2)n1)C(N)=O` [compound 111, (S)-6-((1-amino-1-oxopropan-2-yl)amino)-2-(3-carbamoyl-4-(4-fluorophenoxy)phenyl)pyrimidine-4-carboxamide] was run?
Answer: 7.88 µM

Question: How did the IC50 turn out when `O=C(O)c1cc(N[C@H]2CCNC2=O)nc(-c2ccc(Oc3ccc(C(F)(F)F)cn3)cc2)n1` [compound 157, (S)-6-((2-oxopyrrolidin-3-yl)amino)-2-(4-((5-(trifluoromethyl)pyridin-2-yl)oxy)phenyl)pyrimidine-4-carboxylic acid] was run?
Answer: > 20 µM

Question: Which IC50 does the source give for `NC(=O)c1cc(N2CC[C@H]2C(N)=O)nc(-c2ccc(Oc3ccc(F)cc3)cc2)n1` [compound 132, (S)-6-(2-carbamoylazetidin-1-yl)-2-(4-(4-fluorophenoxy)phenyl)pyrimidine-4-carboxamide] here?
Answer: 0.28 µM

Question: For `NC(=O)c1cc(N[C@H]2CCNC2=O)nc(-c2ccc(C(O)c3ccc(C(F)(F)F)cn3)cc2)n1` (stereo partly shown) [Cpd No. 189], which IC50 is on record?
Answer: > 20 µM

Question: `C[C@H](Nc1cc(C(N)=O)nc(N2CC3CC2CN3c2ccc(F)cc2)n1)C(N)=O` (stereo partly drawn) [compound 106, 6-(((S)-1-amino-1-oxopropan-2-yl)amino)-2-(5-(4-fluorophenyl)-2,5-diazabicyclo[2.2.1]heptan-2-yl)pyrimidine-4-carboxamide] was tested. Which IC50 did it give?
Answer: 10 to 20 µM

Question: Which IC50 does the source give for `C[C@H](Nc1cc(C(N)=O)nc(N2C3CCC2CC(Oc2ccc(C(F)(F)F)cc2-c2ccncc2)C3)n1)C(N)=O` (stereo partly drawn) [compound 155, 6-(((S)-1-amino-1-oxopropan-2-yl)amino)-2-(3-(2-(pyridin-4-yl)-4-(trifluoromethyl)phenoxy)-8-azabicyclo[3.2.1]octan-8-yl)pyrimidine-4-carboxamide] here?
Answer: 4.1 µM

Question: `NC(=O)c1cc(N[C@H]2CCNC2=O)nc(-c2ccc(Oc3cnc(C(F)(F)F)cn3)cc2)n1` [compound 141, (S)-6-((2-oxopyrrolidin-3-yl)amino)-2-(4-((5-(trifluoromethyl)pyrazin-2-yl)oxy)phenyl)pyrimidine-4-carboxamide] was tested. Which IC50 did it give?
Answer: 0.74 µM

Question: With `NC(=O)c1cc(N[C@H]2CCNC2=O)nc(-c2ccc(Oc3ccc(C(F)(F)F)nn3)cc2)n1` [compound 152, (S)-6-((2-oxopyrrolidin-3-yl)amino)-2-(4-((6-(trifluoromethyl)pyridazin-3-yl)oxy)phenyl)pyrimidine-4-carboxamide] as the compound, how does the IC50 read?
Answer: > 20 µM

Question: Which IC50 does the source give for `NC(=O)c1cc(N[C@H]2CCNC2=O)nc(-c2ccc(Oc3ccc(C(F)(F)F)cc3CN3CCOCC3)cc2)n1` [Cpd No. 192, (S)-2-(4-(2-(morpholinomethyl)-4-(trifluoromethyl)phenoxy)-phenyl)-6-((2-oxopyrrolidin-3-yl)amino)pyrimidine-4-carboxamide] here?
Answer: 1.34 µM

Question: `CN(C)Cc1cc(Oc2ccc(C(F)(F)F)cc2)ccc1-c1nc(N[C@H]2CCNC2=O)cc(C(N)=O)n1` [Cpd No. 201, (S)-2-(2-((dimethylamino)-methyl)-4-(4-(trifluoromethyl)-phenoxy)phenyl)-6-((2-oxopyrrolidin-3-yl)-amino)pyrimidine-4-carboxamide] was tested. Which IC50 did it give?
Answer: > 20 µM

Question: For `CC(C)N1CCN(c2cc(C(N)=O)nc(-c3ccc(Oc4ccc(F)cc4)cc3)n2)C(C(N)=O)C1` (stereo not shown) [compound 112, 6-(2-carbamoyl-4-isopropylpiperazin-1-yl)-2-(4-(4-fluorophenoxy)phenyl)pyrimidine-4-carboxamide], which IC50 is on record?
Answer: 0.38 µM

Question: Which IC50 does the source give for `NC(=O)c1cc(OCCN2CCNC2=O)nc(-c2ccc(Oc3ccc(C(F)(F)F)cc3)cc2)n1` [compound 127, 6-(2-(2-oxoimidazolidin-1-yl)ethoxy)-2-(4-(4-(trifluoromethyl)phenoxy)phenyl) pyrimnidine-4-carboxamide] here?
Answer: 0.26 µM

Question: `NC(=O)c1cc(N[C@H]2CCNC2=O)nc(-c2ccc(Oc3ccc(F)cc3)cc2CN2CCOCC2)n1` [Cpd No. 187, (S)-2-(4-(4-fluorophenoxy)-2-(morpholinomethyl)phenyl)-6-((2-oxopyrrolidin-3-yl)amino)-pyrimidine-4-carboxamide] was tested. Which IC50 did it give?
Answer: 5.67 µM
